Measurements from patent US5310727A, “Pharmaceutical compositions for parenteral use containing a calcitonin as the active ingredient” (Scalvo S.p.A., priority 1986, dated 1994).
Where a SMILES comes first, the peptide text is derived from it. Bridges are numbered along the chain shown (N, C = ends).

Assay: Solubility of the ingredient in water (description)
Assay type: physicochemical
Conditions: white fluffy powder

In the case of `CC(C)C[C@H](NC(=O)[C@H](CCCCN)NC(=O)CNC(=O)[C@H](CC(C)C)NC(=O)[C@@H](NC(=O)[C@@H]1CSSC[C@H](N)C(=O)N[C@@H](CO)C(=O)N[C@@H](CC(N)=O)C(=O)N[C@@H](CC(C)C)C(=O)N[C@@H](CO)C(=O)N[C@@H]([C@@H](C)O)C(=O)N1)C(C)C)C(=O)N[C@@H](CO)C(=O)N[C@@H](CCC(N)=O)C(=O)N[C@@H](CCC(=O)O)C(=O)N[C@@H](CC(C)C)C(=O)N[C@@H](Cc1c[nH]cn1)C(=O)N[C@@H](CCCCN)C(=O)N[C@@H](CC(C)C)C(=O)N[C@@H](CCC(N)=O)C(=O)N[C@H](C(=O)N[C@@H](Cc1ccc(O)cc1)C(=O)N1CCC[C@H]1C(=O)N[C@@H](CCCNC(=N)N)C(=O)N[C@H](C(=O)N[C@@H](CC(=O)O)C(=O)N[C@H](C(=O)NCC(=O)N[C@@H](C)C(=O)NCC(=O)N[C@H](C(=O)N1CCC[C@H]1C(N)=O)[C@@H](C)O)C(C)C)[C@@H](C)O)[C@@H](C)O` [eel calcitonin, eel calcitonin (synthetic)] (H-CSNLSTCVLGKLSQELHKLQTYPRTDVGAGTP-NH2; disulfide 1-7), the Solubility in water is reported as “easily soluble in water”.
